Measurements taken from patent US12331044B2, “Inhibitors of histone deacetylase useful for the treatment or prevention of HIV infection” (Merck Sharp & Dohme LLC, priority 2018, dated 2025).
Read-outs that look alike come from different tables or passages of the source.

Tests used:
[1] = target: T1, human HDAC3/SMRT heterodimer (Homo sapiens (Human), UniProt O15379); experiment: biochemical
HDAC6 [2] = target: T2, HDAC6 (Homo sapiens (Human), UniProt Q9UBN7); experiment: biochemical
KARN cells (Jurkat 2C4) [3] = settings: luciferase induction, 2 μM SAHA = 100%
human HDAC2 = human HDAC2 (Homo sapiens (Human), UniProt Q92769); experiment: HDAC2 inhibition assay (modified FLUOR DE LYS, 384-well); type: biochemical; settings: 40 μM substrate BML-KI104, 3 h pre-incubation, read-out: HDAC2 IC50
human HDAC2, sequence (Q92769 whole entry): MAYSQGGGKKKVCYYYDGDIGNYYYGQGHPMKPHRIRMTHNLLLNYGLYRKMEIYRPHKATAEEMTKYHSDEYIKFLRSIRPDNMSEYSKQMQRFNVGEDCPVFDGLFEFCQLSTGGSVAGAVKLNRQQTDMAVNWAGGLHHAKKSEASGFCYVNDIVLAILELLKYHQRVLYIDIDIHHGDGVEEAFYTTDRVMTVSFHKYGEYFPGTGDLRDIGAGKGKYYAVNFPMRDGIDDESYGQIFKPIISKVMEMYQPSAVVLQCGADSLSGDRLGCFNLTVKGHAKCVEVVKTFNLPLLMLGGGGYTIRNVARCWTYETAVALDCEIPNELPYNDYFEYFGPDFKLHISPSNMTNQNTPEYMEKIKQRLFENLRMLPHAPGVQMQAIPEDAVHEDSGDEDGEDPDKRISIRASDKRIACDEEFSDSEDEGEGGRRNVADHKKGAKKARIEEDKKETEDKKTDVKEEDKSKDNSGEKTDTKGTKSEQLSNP

human HDAC8 = human HDAC8 (Homo sapiens (Human), UniProt Q9BY41); experiment: HDAC8 inhibition assay (modified FLUOR DE LYS, 384-well); type: biochemical; settings: 200 μM substrate BML-KI178, 3 h pre-incubation, read-out: HDAC8 IC50
human HDAC8, sequence (Q9BY41 whole entry): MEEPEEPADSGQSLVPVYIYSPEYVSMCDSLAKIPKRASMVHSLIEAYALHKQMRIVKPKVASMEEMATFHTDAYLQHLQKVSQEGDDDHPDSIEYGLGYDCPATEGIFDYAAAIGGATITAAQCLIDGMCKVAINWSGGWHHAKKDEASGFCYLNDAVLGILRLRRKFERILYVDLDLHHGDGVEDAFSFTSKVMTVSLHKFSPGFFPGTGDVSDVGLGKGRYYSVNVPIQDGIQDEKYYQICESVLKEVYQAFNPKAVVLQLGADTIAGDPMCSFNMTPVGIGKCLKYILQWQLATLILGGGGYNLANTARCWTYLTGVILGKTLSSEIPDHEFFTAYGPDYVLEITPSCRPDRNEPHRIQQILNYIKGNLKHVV

human HDAC1 [4] = target: T3, human HDAC1 (Homo sapiens (Human), UniProt Q13547); experiment: biochemical
T3 sequence (Q13547 whole entry): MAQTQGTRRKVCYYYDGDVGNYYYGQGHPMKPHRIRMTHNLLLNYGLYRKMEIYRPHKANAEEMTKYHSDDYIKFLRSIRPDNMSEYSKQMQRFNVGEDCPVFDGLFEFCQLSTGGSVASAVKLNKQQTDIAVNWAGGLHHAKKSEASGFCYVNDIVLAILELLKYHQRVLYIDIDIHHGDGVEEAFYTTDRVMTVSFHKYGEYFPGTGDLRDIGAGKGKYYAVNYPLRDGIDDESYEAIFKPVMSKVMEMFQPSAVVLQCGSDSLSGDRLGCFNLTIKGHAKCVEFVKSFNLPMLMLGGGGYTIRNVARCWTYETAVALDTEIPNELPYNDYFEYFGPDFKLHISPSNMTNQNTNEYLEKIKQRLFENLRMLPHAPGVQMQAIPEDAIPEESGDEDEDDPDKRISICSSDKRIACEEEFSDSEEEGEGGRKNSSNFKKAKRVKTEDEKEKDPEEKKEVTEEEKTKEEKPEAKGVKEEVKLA

human HDAC1 [5] = target: T3, human HDAC1
[6] = target: T1, human HDAC3/SMRT heterodimer
HDAC6 [7] = target: T2, HDAC6
KARN cells (Jurkat 2C4) [8] = experiment: cells; settings: Homo sapiens
[9] = read-out: Karn EC50 nM 0.1% NHS, 0.1% normal human serum
[10] = read-out: Karn EC50 nM 5% NHS, 5% normal human serum

T2 sequence (Q9UBN7 whole entry): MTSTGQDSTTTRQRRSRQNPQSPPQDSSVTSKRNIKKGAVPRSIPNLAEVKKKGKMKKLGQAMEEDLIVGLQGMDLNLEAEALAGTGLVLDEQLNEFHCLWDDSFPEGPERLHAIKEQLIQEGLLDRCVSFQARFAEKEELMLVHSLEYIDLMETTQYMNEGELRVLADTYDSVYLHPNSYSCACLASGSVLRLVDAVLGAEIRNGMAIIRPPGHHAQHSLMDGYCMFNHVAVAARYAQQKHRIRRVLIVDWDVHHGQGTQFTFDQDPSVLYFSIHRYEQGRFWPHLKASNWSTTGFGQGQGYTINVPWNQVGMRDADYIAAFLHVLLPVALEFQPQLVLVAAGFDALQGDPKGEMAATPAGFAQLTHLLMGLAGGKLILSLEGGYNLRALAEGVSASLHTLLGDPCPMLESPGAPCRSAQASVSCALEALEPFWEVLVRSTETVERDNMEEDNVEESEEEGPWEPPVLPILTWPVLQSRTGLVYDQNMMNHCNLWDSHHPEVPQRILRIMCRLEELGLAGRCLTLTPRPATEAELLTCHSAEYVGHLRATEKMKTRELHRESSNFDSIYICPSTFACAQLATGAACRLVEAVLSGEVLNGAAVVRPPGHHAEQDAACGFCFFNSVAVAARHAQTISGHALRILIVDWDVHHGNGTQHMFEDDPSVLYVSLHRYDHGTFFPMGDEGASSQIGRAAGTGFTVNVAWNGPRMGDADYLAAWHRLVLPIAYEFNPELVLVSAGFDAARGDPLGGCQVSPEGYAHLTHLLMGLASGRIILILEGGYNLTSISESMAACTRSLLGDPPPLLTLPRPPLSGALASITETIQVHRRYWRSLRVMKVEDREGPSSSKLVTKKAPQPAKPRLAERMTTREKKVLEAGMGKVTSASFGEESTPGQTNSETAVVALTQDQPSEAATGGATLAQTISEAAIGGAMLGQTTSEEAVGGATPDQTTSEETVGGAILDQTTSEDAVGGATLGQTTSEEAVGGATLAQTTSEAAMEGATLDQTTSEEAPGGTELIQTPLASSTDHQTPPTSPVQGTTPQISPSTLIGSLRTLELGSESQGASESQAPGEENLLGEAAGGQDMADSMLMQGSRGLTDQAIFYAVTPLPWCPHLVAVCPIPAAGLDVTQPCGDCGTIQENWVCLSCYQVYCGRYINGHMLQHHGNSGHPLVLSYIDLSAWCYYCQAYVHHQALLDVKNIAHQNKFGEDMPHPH
T1 sequence (O15379 whole entry): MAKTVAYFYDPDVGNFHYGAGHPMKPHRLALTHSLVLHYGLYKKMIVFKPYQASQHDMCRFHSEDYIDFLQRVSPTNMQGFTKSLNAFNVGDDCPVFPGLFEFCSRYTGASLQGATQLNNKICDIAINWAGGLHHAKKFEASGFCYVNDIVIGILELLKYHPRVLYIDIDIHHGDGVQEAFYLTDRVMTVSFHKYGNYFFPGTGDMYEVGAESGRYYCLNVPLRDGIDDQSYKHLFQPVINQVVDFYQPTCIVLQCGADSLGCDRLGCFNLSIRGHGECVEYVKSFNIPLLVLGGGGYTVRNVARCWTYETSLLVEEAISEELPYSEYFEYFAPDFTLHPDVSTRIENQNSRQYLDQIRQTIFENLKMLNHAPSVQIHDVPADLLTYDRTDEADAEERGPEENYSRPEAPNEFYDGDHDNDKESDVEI
T1 sequence (Q9Y618 1-899 partner): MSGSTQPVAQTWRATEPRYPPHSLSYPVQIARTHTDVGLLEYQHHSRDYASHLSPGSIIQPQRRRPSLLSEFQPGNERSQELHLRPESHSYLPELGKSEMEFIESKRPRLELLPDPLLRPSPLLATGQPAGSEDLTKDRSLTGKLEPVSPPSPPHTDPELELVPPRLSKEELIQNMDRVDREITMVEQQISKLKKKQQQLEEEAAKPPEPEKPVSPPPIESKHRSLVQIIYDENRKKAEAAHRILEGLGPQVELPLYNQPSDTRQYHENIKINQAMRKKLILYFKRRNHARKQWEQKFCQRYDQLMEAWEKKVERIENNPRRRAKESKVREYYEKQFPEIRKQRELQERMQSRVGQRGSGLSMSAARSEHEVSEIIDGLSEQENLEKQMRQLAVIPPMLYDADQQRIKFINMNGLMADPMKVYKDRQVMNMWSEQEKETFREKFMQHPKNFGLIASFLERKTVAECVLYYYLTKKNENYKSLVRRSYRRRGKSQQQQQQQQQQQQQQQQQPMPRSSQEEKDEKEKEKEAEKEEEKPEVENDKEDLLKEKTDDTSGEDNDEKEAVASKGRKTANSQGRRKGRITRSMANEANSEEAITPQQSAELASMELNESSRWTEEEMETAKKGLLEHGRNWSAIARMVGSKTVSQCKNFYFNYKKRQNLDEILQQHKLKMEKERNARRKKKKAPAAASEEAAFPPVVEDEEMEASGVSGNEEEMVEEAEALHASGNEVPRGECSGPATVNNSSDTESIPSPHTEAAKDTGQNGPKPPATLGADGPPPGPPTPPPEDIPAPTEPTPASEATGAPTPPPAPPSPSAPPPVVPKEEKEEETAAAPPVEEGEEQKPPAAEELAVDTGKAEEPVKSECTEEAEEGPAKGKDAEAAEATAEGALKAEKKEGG

With `Cc1ccc2cc(-c3cnc([C@H](CCCCCC(=O)c4ncco4)NC(=O)[C@H]4CC45CCN(C)CC5)o3)ccc2n1` [Example 109, (S)-6-methyl-N-((S)-1-(5-(2-methylquinolin-6-yl)oxazol-2-yl)-7-(oxazol-2-yl)-7-oxoheptyl)-6-azaspiro[2.5]octane-1-carboxamide] the IC50 [1] was 7.5 nM, the IC50 (HDAC6 [2]) was 23000 nM and the EC50 (KARN cells (Jurkat 2C4) [3]; [9]) was 1700 nM. The EC50 (KARN cells (Jurkat 2C4) [3]; [10]) was 2500 nM, the IC50 (human HDAC2; […] nM enzyme) was 39 nM and the IC50 (human HDAC8; […] nM enzyme) was 5000 nM. The IC50 (human HDAC1 [4]) was 7.5 nM.

Molecule `Cc1ccc2cc(-c3cnc(C(CCCCCC(=O)c4ncco4)NC(=O)[C@H]4CC45CCN(C)CC5)o3)ccc2n1` (stereo partly drawn) [Example 111, (1S)-6-methyl-N-(1-(5-(2-methylquinolin-6-yl)oxazol-2-yl)-7-(oxazol-2-yl)-7-oxoheptyl)-6-azaspiro[2.5]octane-1-carboxamide] has an IC50 (human HDAC1 [5]) of 0.76 nM, an EC50 (KARN cells (Jurkat 2C4) [3]; [9]) of 70 nM and an EC50 (KARN cells (Jurkat 2C4) [3]; [10]) of 48 nM. For the same molecule, the IC50 [6] was 1.4 nM, the IC50 (human HDAC2; […] enzyme) was 5.2 nM and the IC50 (human HDAC8; […] enzyme) was 520 nM. For the same molecule, the IC50 (HDAC6 [7]) was 430 nM.

Work on `COc1cc2nc(C)ccc2cc1-c1cnc([C@H](CCCCCC(=O)c2ncco2)NC(=O)C2COCCO2)[nH]1` (stereo partly drawn) [Example 174, N-[(1S)-1-[5-(7-methoxy-2-methylquinolin-6-yl)-1H-imidazol-2-yl]-7-(1,3-oxazol-2-yl)-7-oxoheptyl]-1,4-dioxane-2-carboxamide] yielded an IC50 (human HDAC1 [5]) of 1.4 nM, an EC50 (KARN cells (Jurkat 2C4) [3]; [9]) of 37 nM and an EC50 (KARN cells (Jurkat 2C4) [3]; [10]) of 80 nM. The IC50 [6] was 0.54 nM, the IC50 (human HDAC2; […] enzyme) was 3.7 nM and the IC50 (human HDAC8; […] enzyme) was 110 nM. The IC50 (HDAC6 [7]) was over 900 nM.

With `CN(C)CC(=O)N[C@@H](CCCCCC(=O)c1ccon1)c1nc(Cl)c(-c2ccc(F)cc2)[nH]1` [Example 194, (S)-N-(1-(4-chloro-5-(4-fluorophenyl)-1H-imidazol-2-yl)-7-(isoxazol-3-yl)-7-oxoheptyl)-2-(dimethylamino)acetamide] the IC50 [1] was 0.1 nM, the IC50 (HDAC6 [2]) was 9500 nM and the IC50 (human HDAC2; […] nM enzyme) was 0.69 nM. For the same molecule, the IC50 (human HDAC8; […] nM enzyme) was 19 nM, the IC50 (human HDAC1 [4]) was 0.2 nM and the EC50 (KARN cells (Jurkat 2C4) [8]; read-out: Karn EC50 nM 0.1% NHS, 0.1% normal human serum, luciferase induction, 2 μM SAHA = 100%) was 3.2 nM. The EC50 (KARN cells (Jurkat 2C4) [8]; read-out: Karn EC50 nM 5% NHS, 5% normal human serum, luciferase induction, 2 μM SAHA = 100%) was 15 nM.
